In publication PMC2630805, “Anticancer Alkaloid Lamellarins Inhibit Protein Kinases” (Marine Drugs, 2008):

What was measured:
[1] = target: c-Met kinase (h) (Homo sapiens, UniProt P08581); test: CEREP Kinase Selectivity Panel; type: biochemical; conditions: 10 μM lamellarin N
[2] = target: FGFR2 kinase (h) (Homo sapiens, UniProt P21802); test: CEREP Kinase Selectivity Panel; type: biochemical; conditions: 10 μM lamellarin N
[3] = tested on: PARP, p53, p21^CIP1, Mcl-1 in SH-SY5Y cells; type: cell-based, human
Description: SH-SY5Y cells treated at time 0 with 1 μM lamellarin N. Cells were harvested at different time-points and protein extracted for SDS-PAGE followed by Western blot analysis using antibodies directed against PARP, p53, p21^CIP1, or Mcl-1, as described in the materials and methods section. β-actin was used as loading control. “Ctrl” denoted untreated sample after 10 hours.
At given time points and lamellarin doses, SH-SY5Y cells were harvested in phosphate buffered saline (PBS) with commercially available protease inhibitors (Roche, 11836145001). Cells were homogenized by sonication in homogenization buffer supplemented with 0.1% NP-40 and protease inhibitors. The homogenization buffer consist of: 25mM MOPS, 15mM EGTA, 15mM MgCl2, 1mM sodium orthovanadate, 1mM sodium fluoride, 60mM β-glycerophosphate, 2mM DTT, 15mM p-nitrophenylphosphate, and 1mM phenyl phosphate-di-sodium salt (all reagents supplied by Sigma). Sonication retrieved proteins. Cellular proteins were subjected to electrophoresis in SDS 10% polyacrylamide gels and transferred to a PVDF membrane (Invitrogen). Membranes were incubated with primary antibodies directed against p53 (Santa Cruz Biotech, sc-263) (1:1000), p21^CIP1 (Calbiochem, OP64) (1:1000) or poly (ADP-ribose) polymerase (PARP) (Santa Cruz Biotech, sc-7150) (1:500). Appropriate secondary antibodies conjugated to horseradish peroxidase (Biorad) were added to visualize the proteins using the ECL detection system.

[4] = target: FGFR4 kinase (h) (Homo sapiens, UniProt P22455); test: CEREP Kinase Selectivity Panel; type: biochemical; conditions: 10 μM lamellarin N
FGFR4 kinase (h), sequence (P22455 22-802): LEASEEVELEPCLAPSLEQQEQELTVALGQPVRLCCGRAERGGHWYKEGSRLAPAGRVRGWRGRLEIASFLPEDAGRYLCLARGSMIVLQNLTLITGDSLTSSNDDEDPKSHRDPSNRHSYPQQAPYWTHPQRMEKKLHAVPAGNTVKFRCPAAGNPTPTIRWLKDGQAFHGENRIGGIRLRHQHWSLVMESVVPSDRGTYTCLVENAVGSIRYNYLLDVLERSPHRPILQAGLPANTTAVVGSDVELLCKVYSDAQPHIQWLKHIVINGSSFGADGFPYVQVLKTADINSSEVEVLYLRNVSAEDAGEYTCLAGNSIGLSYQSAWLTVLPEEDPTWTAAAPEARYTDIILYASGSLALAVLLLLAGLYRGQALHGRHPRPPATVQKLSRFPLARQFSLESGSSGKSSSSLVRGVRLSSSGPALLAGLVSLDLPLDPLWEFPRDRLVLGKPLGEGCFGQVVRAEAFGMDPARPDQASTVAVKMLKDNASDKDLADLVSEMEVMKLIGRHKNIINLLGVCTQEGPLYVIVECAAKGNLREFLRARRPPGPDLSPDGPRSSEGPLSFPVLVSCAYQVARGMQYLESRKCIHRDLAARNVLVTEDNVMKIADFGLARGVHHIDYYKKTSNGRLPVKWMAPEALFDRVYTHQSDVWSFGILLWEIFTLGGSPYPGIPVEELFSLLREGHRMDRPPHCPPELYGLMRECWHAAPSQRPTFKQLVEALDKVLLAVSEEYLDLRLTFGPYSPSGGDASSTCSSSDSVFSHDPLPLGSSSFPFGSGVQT

[5] = target: Abl kinase (h) (Homo sapiens, UniProt P00519); test: CEREP Kinase Selectivity Panel; type: biochemical; conditions: 10 μM lamellarin N
Abl kinase (h), sequence (P00519 whole entry): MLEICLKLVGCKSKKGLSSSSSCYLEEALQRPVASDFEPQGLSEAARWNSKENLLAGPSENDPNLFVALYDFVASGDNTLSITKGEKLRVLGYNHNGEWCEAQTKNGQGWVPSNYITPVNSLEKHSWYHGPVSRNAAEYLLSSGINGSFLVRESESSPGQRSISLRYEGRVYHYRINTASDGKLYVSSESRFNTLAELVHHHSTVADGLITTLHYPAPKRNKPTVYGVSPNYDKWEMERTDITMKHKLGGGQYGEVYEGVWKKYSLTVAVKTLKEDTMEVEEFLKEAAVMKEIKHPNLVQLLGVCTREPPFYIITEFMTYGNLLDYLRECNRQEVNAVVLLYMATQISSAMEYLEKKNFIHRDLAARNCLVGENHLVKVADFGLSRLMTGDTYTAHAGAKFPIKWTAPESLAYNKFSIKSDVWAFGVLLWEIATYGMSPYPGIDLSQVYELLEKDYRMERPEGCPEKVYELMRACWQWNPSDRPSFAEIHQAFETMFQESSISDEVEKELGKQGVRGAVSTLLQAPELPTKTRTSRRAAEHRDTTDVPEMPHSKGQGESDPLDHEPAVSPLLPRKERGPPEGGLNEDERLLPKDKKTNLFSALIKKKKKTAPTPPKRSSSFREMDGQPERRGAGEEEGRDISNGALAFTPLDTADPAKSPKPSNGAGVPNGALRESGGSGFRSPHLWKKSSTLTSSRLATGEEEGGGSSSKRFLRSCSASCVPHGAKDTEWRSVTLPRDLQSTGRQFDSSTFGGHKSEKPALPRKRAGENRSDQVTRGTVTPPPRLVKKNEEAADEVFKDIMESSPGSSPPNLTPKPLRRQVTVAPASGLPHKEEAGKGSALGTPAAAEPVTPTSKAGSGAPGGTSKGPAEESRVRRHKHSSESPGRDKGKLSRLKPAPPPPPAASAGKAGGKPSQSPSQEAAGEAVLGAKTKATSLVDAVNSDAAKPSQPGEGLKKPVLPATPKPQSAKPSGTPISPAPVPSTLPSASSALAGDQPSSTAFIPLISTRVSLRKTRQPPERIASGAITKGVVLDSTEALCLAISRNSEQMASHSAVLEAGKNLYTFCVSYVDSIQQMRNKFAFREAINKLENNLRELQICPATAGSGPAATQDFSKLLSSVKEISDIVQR

[6] = target: MAPKAPK2 (h) (Homo sapiens, UniProt P49137); test: CEREP Kinase Selectivity Panel; type: biochemical; conditions: 10 μM lamellarin N
[7] = target: PKCα (h) (Homo sapiens, UniProt P17252); test: CEREP Kinase Selectivity Panel; type: biochemical; conditions: 10 μM lamellarin N
[8] = target: p38γ kinase (h) (Homo sapiens, UniProt P53778); test: CEREP Kinase Selectivity Panel; type: biochemical; conditions: 10 μM lamellarin N
[9] = target: Lck kinase (h) (Homo sapiens, UniProt P06239); test: CEREP Kinase Selectivity Panel; type: biochemical; conditions: 10 μM lamellarin N
[10] = target: Lyn kinase (h) (Homo sapiens, UniProt P07948); test: CEREP Kinase Selectivity Panel; type: biochemical; conditions: 10 μM lamellarin N
[11] = target: Akt1/PKB α (h) (Homo sapiens, UniProt P31749); test: CEREP Kinase Selectivity Panel; type: biochemical; conditions: 10 μM lamellarin N
Akt1/PKB α (h), sequence (P31749 whole entry): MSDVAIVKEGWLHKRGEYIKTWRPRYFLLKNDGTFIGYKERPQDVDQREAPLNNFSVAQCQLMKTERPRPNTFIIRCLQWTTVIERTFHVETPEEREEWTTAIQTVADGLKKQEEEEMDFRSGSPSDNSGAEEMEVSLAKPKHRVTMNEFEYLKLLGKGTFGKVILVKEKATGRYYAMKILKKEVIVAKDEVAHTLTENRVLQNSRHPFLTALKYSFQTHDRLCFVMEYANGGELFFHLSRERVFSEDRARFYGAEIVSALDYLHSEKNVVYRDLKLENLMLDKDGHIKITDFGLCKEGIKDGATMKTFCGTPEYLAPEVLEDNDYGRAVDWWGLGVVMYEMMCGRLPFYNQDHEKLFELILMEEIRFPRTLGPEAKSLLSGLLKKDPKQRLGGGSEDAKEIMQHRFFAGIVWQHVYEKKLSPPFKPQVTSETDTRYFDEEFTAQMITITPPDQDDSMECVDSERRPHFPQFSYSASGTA

[12] = target: CaMK2α (h) (Homo sapiens, UniProt Q9UQM7); test: CEREP Kinase Selectivity Panel; type: biochemical; conditions: 10 μM lamellarin N
CaMK2α (h), sequence (Q9UQM7 whole entry): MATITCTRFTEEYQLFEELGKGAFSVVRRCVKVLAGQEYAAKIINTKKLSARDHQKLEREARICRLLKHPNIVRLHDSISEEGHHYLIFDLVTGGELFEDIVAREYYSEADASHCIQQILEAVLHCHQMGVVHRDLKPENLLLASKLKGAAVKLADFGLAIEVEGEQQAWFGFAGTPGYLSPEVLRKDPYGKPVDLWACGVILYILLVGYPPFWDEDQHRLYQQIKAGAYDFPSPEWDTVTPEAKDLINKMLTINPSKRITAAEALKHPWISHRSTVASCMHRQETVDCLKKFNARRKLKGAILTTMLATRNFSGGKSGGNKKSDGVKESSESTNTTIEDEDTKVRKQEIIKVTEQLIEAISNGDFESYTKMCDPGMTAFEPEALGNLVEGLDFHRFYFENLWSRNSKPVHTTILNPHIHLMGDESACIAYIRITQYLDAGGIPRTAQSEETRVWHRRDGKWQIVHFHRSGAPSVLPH

[13] = target: IGF1R kinase (h) (Homo sapiens, UniProt P08069); test: CEREP Kinase Selectivity Panel; type: biochemical; conditions: 10 μM lamellarin N
[14] = target: FLT-1 kinase (h) (VEGFR1) (Homo sapiens, UniProt P17948); test: CEREP Kinase Selectivity Panel; type: biochemical; conditions: 10 μM lamellarin N
[15] = target: Src kinase (h) (Homo sapiens, UniProt P12931); test: CEREP Kinase Selectivity Panel; type: biochemical; conditions: 10 μM lamellarin N
[16] = target: Fyn kinase (h) (Homo sapiens, UniProt P06241); test: CEREP Kinase Selectivity Panel; type: biochemical; conditions: 10 μM lamellarin N
[17] = target: CaMK4 (h) (Homo sapiens, UniProt Q16566); test: CEREP Kinase Selectivity Panel; type: biochemical; conditions: 10 μM lamellarin N
CaMK4 (h), sequence (Q16566 whole entry): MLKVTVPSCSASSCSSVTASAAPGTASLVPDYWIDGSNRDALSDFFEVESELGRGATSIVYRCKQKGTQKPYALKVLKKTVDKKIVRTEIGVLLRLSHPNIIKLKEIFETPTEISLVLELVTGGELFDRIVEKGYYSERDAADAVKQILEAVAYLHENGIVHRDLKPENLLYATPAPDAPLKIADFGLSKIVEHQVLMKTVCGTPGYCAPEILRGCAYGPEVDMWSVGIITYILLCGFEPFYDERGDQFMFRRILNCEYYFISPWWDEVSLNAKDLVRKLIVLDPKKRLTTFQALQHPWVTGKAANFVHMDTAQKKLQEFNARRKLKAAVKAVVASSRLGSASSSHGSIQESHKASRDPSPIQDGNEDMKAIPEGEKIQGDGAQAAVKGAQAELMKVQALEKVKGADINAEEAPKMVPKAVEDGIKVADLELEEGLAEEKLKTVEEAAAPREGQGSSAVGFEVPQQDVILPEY

[18] = target: PKA (h) (Homo sapiens, UniProt P17612); test: CEREP Kinase Selectivity Panel; type: biochemical; conditions: 10 μM lamellarin N
[19] = target: PIM 1 (Homo sapiens, UniProt P11309); test: PIM1 kinase assay (histone H1); type: biochemical
PIM 1, sequence (P11309 whole entry, species assumed): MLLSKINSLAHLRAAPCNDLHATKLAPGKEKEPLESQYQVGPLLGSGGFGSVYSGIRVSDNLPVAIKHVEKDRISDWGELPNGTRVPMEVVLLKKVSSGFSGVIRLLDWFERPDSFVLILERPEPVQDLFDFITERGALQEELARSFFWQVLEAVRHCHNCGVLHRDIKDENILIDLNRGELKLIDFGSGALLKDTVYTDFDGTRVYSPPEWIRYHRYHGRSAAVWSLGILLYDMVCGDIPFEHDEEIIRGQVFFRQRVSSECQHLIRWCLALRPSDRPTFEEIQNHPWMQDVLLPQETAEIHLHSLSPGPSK

[20] = target: CK1; test: CK1 kinase assay (CKS peptide); type: biochemical, porcine; conditions: 15 μM ATP; cell '− (x)' = no inhibitory activity detected, x = highest concentration tested
Description: CK1 was purified from porcine brain by affinity chromatography on immobilized axin fragment. The mixture of native CK1 isoforms (essentially CK1δ and CK1ɛ) was assayed in three-fold diluted buffer C, using 25 μM CKS peptide, a CK1 selective substrate (RRKHAAIGpSAYSITA, synthesized by Millegen (Labège, France). Assays were performed for 30 min. at 30°C, as described for GSK-3.

[21] = target: p38δ kinase (h) (Homo sapiens, UniProt O15264); test: CEREP Kinase Selectivity Panel; type: biochemical; conditions: 10 μM lamellarin N
[22] = target: KDR kinase (h) (VEGFR2) (Homo sapiens, UniProt P35968); test: CEREP Kinase Selectivity Panel; type: biochemical; conditions: 10 μM lamellarin N
[23] = target: PDGFRβ kinase (h) (Homo sapiens, UniProt P09619); test: CEREP Kinase Selectivity Panel; type: biochemical; conditions: 10 μM lamellarin N
[24] = target: Syk (h) (Homo sapiens, UniProt P43405); test: CEREP Kinase Selectivity Panel; type: biochemical; conditions: 10 μM lamellarin N
[25] = target: CDC2/CDK1 (h) (cycB) (Homo sapiens, UniProt P06493); test: CEREP Kinase Selectivity Panel; type: biochemical; conditions: 10 μM lamellarin N
[26] = target: ERK1 (h) (Homo sapiens, UniProt P27361); test: CEREP Kinase Selectivity Panel; type: biochemical; conditions: 10 μM lamellarin N
[27] = target: PKCγ (h) (Homo sapiens, UniProt P05129); test: CEREP Kinase Selectivity Panel; type: biochemical; conditions: 10 μM lamellarin N
[28] = target: EphB4 kinase (h) (Homo sapiens, UniProt P54760); test: CEREP Kinase Selectivity Panel; type: biochemical; conditions: 10 μM lamellarin N
[29] = target: MEK1/MAP2K1 (h) (Homo sapiens, UniProt Q02750); test: CEREP Kinase Selectivity Panel; type: biochemical; conditions: 10 μM lamellarin N
[30] = target: PDK1 (h) (Homo sapiens, UniProt O15530); test: CEREP Kinase Selectivity Panel; type: biochemical; conditions: 10 μM lamellarin N
PDK1 (h), sequence (O15530 whole entry): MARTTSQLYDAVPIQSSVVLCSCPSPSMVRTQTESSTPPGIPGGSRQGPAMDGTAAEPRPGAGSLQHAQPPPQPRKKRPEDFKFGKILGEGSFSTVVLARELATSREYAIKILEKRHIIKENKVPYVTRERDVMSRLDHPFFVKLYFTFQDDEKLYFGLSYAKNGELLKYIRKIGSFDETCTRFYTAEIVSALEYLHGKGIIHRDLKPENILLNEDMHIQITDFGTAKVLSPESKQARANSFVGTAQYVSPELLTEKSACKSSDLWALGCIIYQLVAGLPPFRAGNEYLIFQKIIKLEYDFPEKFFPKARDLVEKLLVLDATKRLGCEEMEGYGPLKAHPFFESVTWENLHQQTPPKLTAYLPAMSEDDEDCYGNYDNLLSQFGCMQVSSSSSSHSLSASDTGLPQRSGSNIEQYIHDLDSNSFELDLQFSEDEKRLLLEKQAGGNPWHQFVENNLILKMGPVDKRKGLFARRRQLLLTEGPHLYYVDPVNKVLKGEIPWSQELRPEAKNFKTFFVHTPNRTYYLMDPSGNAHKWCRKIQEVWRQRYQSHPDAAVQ

[31] = target: CSK (h) (Homo sapiens, UniProt P41240); test: CEREP Kinase Selectivity Panel; type: biochemical; conditions: 10 μM lamellarin N
[32] = target: CDK2 (h) (cycE) (Homo sapiens, UniProt P24941); test: CEREP Kinase Selectivity Panel; type: biochemical; conditions: 10 μM lamellarin N
[33] = target: IRK (h) (InsR) (Homo sapiens, UniProt P06213); test: CEREP Kinase Selectivity Panel; type: biochemical; conditions: 10 μM lamellarin N

COc1ccc(-c2c3c4cc(OC)c(O)cc4oc(=O)c3n3ccc4cc(O)c(OC)cc4c23)cc1O [Compound 6, lamellarin N]
Activity (% of control) [1]: 92.1 % of control
Activity (% of control) [2]: 19.8 % of control
effect on survival factor Mcl-1 expression [3]: not down-regulated
lowest concentration inducing PARP cleavage and p53 and p21 expression [3]: 0.1 µM
time at which induction of PARP cleavage and p53 and p21 expression already takes place [3]: ≤ 6 h
Activity (% of control) [4]: 62.5 % of control
Activity (% of control) [5]: 61.4 % of control
Activity (% of control) [6]: 96.6 % of control
Activity (% of control) [7]: 91.7 % of control
Activity (% of control) [8]: 79.6 % of control
Activity (% of control) [9]: 7.1 % of control
Activity (% of control) [10]: 7.2 % of control
Activity (% of control) [11]: 104.6 % of control
Activity (% of control) [12]: 38.2 % of control
Activity (% of control) [13]: 87.2 % of control
Activity (% of control) [14]: 4.0 % of control
Activity (% of control) [15]: 56.2 % of control
Activity (% of control) [16]: 20.1 % of control
Activity (% of control) [17]: 89.9 % of control
Activity (% of control) [18]: 80.0 % of control
IC50 [19]: 55 nM
IC50 [20]: > 10000 nM
Activity (% of control) [21]: 96.0 % of control
Activity (% of control) [22]: 7.4 % of control
Activity (% of control) [23]: 1.8 % of control
Activity (% of control) [24]: 97.1 % of control
Activity (% of control) [25]: 20.4 % of control
Activity (% of control) [26]: 94.1 % of control
Activity (% of control) [27]: 94.1 % of control
Activity (% of control) [28]: 89.7 % of control
Activity (% of control) [29]: 81.5 % of control
Activity (% of control) [30]: 89.8 % of control
Activity (% of control) [31]: 47.4 % of control
Activity (% of control) [32]: 57.1 % of control
Activity (% of control) [33]: 46.7 % of control
